PubChem BioAssay AID248 (DTP/NCI, 2004)
Inconclusive results and toxic doses are left out. Cut-off read from the data, not from the text of the source: active = T/C of 150% or more; inactive = T/C below 125%.

Test system: L1210 leukemia ip in BDF1 mice, survival T/C
Assay: NCI In Vivo Anticancer Drug Screen. Data for tumor model L1210 Leukemia (intraperitoneal) in B6D2F1 (BDF1) mice
Conditions: endpoint: mean survival time, higher = longer survival
How it was run: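 Antitumor effect is assessed in tumor-bearing animals. Survival in the compound arm is compared with a vehicle-dosed control arm and expressed as their quotient.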

[1] = dose: 100.0 mg/kg/injection, schedule: Q01DX001 (ip), vehicle: saline
[2] = dose: 200.0 mg/kg/injection, schedule: Q01DX001 (ip), vehicle: saline
[3] = dose: 400.0 mg/kg/injection, schedule: Q01DX001 (ip), vehicle: saline
[4] = dose: 100.0 mg/kg/injection, schedule: Q01DX009 (ip), vehicle: saline with Tween-80
[5] = dose: 200.0 mg/kg/injection, schedule: Q01DX009 (ip), vehicle: saline with Tween-80

Measured: T/C

CCN(CC)Cc1nnnn1-c1ccccc1
inactive: [1] 103 % of control | [2] 97 % of control | [3] 106 % of control

Cc1c(F)cc(I)cc1[N+](=O)[O-]
inactive: dose: 100.0 mg/kg/injection, schedule: Q01DX001 (ip), vehicle: acetone 100 % of control | [4] 103 % of control | dose: 100.0 mg/kg/injection, schedule: Q04DX003 (ip), vehicle: saline with Tween-80 100 % of control | dose: 200.0 mg/kg/injection, schedule: Q01DX001 (ip), vehicle: acetone 95 % of control | [5] 105 % of control | dose: 200.0 mg/kg/injection, schedule: Q04DX003 (ip), vehicle: saline with Tween-80 100 % of control | dose: 400.0 mg/kg/injection, schedule: Q01DX001 (ip), vehicle: acetone 97 % of control | dose: 400.0 mg/kg/injection, schedule: Q01DX009 (ip), vehicle: saline with Tween-80 103 % of control | dose: 400.0 mg/kg/injection, schedule: Q04DX003 (ip), vehicle: saline with Tween-80 93 % of control

Oc1cc(O)c2c(c1)OC(O)(c1ccc(O)c(O)c1)C(O)O2 (stereo not given) (tested in a mixture with another compound)
inactive: dose: 50.0 mg/kg/injection, schedule: Q01DX009 (ip), vehicle: saline with Tween-80 104 % of control | [4] 95 % of control | [5] 102 % of control

N#CC(c1ccc(Cl)cc1)c1ccc(N(CCO)CCO)cc1 (stereo not given)
inactive: [1] 99 % of control | dose: 100.0 mg/kg/injection, schedule: Q04DX003 (ip), vehicle: acetone 103 % of control | [2] 99 % of control | dose: 200.0 mg/kg/injection, schedule: Q04DX003 (ip), vehicle: acetone 97 % of control | [3] 86 % of control | dose: 400.0 mg/kg/injection, schedule: Q04DX003 (ip), vehicle: acetone 91 % of control

CSc1ccc(C(=O)CCl)c(C)c1
inactive: dose: 50.0 mg/kg/injection, schedule: Q01DX001 (ip), vehicle: carboxymethylcellulose (CMC) 94 % of control

CCSC(C(O)C(O)C(O)CO)n1ccc(=O)[nH]c1=O (stereo not given)
inactive: dose: 100.0 mg/kg/injection, schedule: Q01DX005 (ip), vehicle: saline 97 % of control | dose: 200.0 mg/kg/injection, schedule: Q01DX005 (ip), vehicle: saline 93 % of control

Clc1ccccc1N1CCN(c2c3c(nc4ccccc24)CCCCC3)CC1
inactive: [1] 97 % of control | [2] 103 % of control | [3] 97 % of control

N=C(OC1CCCCC1)N(Cc1ccccc1)Cc1ccccc1
inactive: dose: 44.0 mg/kg/injection, schedule: Q01DX Z (ip), vehicle: methylcellulose (MC) 104 % of control | dose: 66.0 mg/kg/injection, schedule: Q01DX Z (ip), vehicle: methylcellulose (MC) 104 % of control | dose: 100.0 mg/kg/injection, schedule: Q01DX Z (ip), vehicle: methylcellulose (MC) 117 % of control
